Measurements published in patent US9447093B2, “3,5-diarylazaindoles as DYRK1A protein inhibitors for the treatment of cognitive deficiencies associated with Down's syndrome and with Alzheimer's disease” (Centre National De La Recherche Scientifique, priority 2012, dated 2016).

Legend:
[1] = target: T1, DYRK1A protein (Homo sapiens, UniProt Q13627); experiment: DYRK1A activity assay (fluorescein peptide substrate, UFLC with fluorescence detection); assay type: biochemical; conditions: for IC50: DYRK1A protein, ΔDYRK1A enzyme, 37° C.
T1 construct: the peptide phosphorylated by His-DYRK1A-ΔC is separated from the unphosphorylated peptide; His (N)

[2] = test system: GSKIII beta protein; experiment: In vivo phosphorylation state of GSKIII beta in brain (slot-blot); conditions: brain of TG animals (trisomy model for DYRK1A gene), intraperitoneal 1 mg/kg at t0 and t16 h, sacrifice t17-t18
Protocol: (§1) To test in vivo the efficacy of these inhibitors, the effect of the compounds according to the invention on the phosphorylation state of two DYRK1A downstream targets in signaling pathways was measured: GSKIII beta protein (FIG. 1a) and CAMKII protein (FIG. 1b).
(§2) These measurements were carried out in the brain of control animals (WT) and of animals of an animal model of trisomy for DYRK1A gene (TG).
(§3) To that end, the compounds were administered by intraperitoneal injection in the amount of 1 mg/kg at t0 then at t16 (hours) and the animals were sacrificed at t17-t18. Brain proteins were then extracted and the amounts of GSKIIIbeta, pGSKIIIbeta, CAMKII and pCAMKII proteins were measured by a slot-blot technique with suitable antibodies.
(§4) The results of these tests are presented in FIG. 1: the y-axis represents the ratio of phosphorylated protein to unphosphorylated protein measured on the untreated animals (WT and TG) and on the animals treated with the compounds according to the invention.

[3] = test system: CAMKII protein; experiment: In vivo phosphorylation state of CAMKII in brain (slot-blot); conditions: brain of TG animals (trisomy model for DYRK1A gene), intraperitoneal 1 mg/kg at t0 and t16 h, sacrifice t17-t18
Protocol: as §1, §2, §3, §4

Row | Molecule | IC50 [1] [nM] | correction of hyperphosphorylated GSKIIIbeta (pGSK/GSK ratio) [2] | correction of hypophosphorylated CAMKII (pCAMKII/CAMKII ratio) [3] | IC50 values for known DYRK1A inhibitors ([1]; validation of the test, compared with literature radioactive kinase tests)
1 | c1ccc(-c2cnc3[nH]cc(-c4ccccc4)c3c2)cc1 [B, 3-phenyl-5-phenyl-1H-pyrrolo[2,3-b]pyridine] | 7490 | – | – | –
2 | Oc1ccc(-c2cnc3[nH]cc(-c4ccccc4)c3c2)cc1 [C, 3-phenyl-5-(4-hydroxyphenyl)-1H-pyrrolo[2,3-b]pyridine] | 326 | excessive correction | do not produce a sufficient correction | –
3 | Oc1ccccc1-c1cnc2[nH]cc(-c3ccccc3)c2c1 [Compound A, 3-phenyl-5-(2-hydroxyphenyl)-1H-pyrrolo[2,3-b]pyridine] | 3590 | – | – | –
4 | Oc1ccc(-c2cnc3[nH]cc(-c4ccccc4)c3c2)cc1O [E, 3-phenyl-5-(3,4-dihydroxyphenyl)-1H-pyrrolo[2,3-b]pyridine] | 160 | – | – | –
5 | Oc1ccc(-c2cnc3[nH]cc(-c4ccccc4)c3c2)c(O)c1 [F, 3-phenyl-5-(2,4-dihydroxyphenyl)-1H-pyrrolo[2,3-b]pyridine] | 154 | – | – | –
6 | Oc1cccc(-c2cnc3[nH]cc(-c4cccc(O)c4)c3c2)c1 [Ia, 3-(3-hydroxyphenyl)-5-(3-hydroxyphenyl)-1H-pyrrolo[2,3-b]pyridine] | 105 | – | – | –
7 | Oc1ccc(-c2cnc3[nH]cc(-c4ccc(O)cc4)c3c2)cc1 [Ib, 3-(4-hydroxyphenyl)-5-(4-hydroxyphenyl)-1H-pyrrolo[2,3-b]pyridine] | 23.1 | effective correction | return the phosphorylation level to the value observed in the control animals | –
8 | COc1ccc(-c2c[nH]c3ncc(-c4ccc(O)cc4)cc23)cc1F [Ic, 3-(3-fluoro-4-methoxyphenyl)-5-(4-hydroxyphenyl)-1H-pyrrolo[2,3-b]pyridine] | 41.5 | – | – | –
9 | Oc1ccc(-c2c[nH]c3ncc(-c4ccc(O)cc4O)cc23)cc1 [I′a, 3-(4-hydroxyphenyl)-5-(2,4-dihydroxyphenyl)-1H-pyrrolo[2,3-b]pyridine] | 11.7 | effective correction | return the phosphorylation level to the value observed in the control animals | –
10 | Oc1ccc(-c2c[nH]c3ncc(-c4ccc(O)c(O)c4)cc23)cc1 [I′b, 3-(4-hydroxyphenyl)-5-(3,4-dihydroxyphenyl)-1H-pyrrolo[2,3-b]pyridine] | 3 | – | – | –
11 | Oc1ccc(-c2cnc3[nH]cc(-c4ccc(O)c(O)c4)c3c2)cc1O [I′c, 3-(3,4-dihydroxyphenyl)-5-(3,4-dihydroxyphenyl)-1H-pyrrolo[2,3-b]pyridine] | 12.4 | excessive correction | do not produce a sufficient correction | –
12 | Oc1ccc(-c2cnc3[nH]cc(-c4ccc(O)c(O)c4)c3c2)c(O)c1 [I′d, 3-(3,4-dihydroxyphenyl)-5-(2,4-dihydroxyphenyl)-1H-pyrrolo[2,3-b]pyridine] | 14.3 | – | – | –
13 | Oc1ccc(O)c(-c2cnc3[nH]cc(-c4ccc(O)c(O)c4)c3c2)c1 [I′e, 3-(3,4-dihydroxyphenyl)-5-(2,5-dihydroxyphenyl)-1H-pyrrolo[2,3-b]pyridine] | 39.1 | – | – | –
14 | Oc1ccc(-c2cnc3[nH]cc(-c4ccc(O)c(F)c4)c3c2)cc1 [I′h, 3-(3-fluoro-4-hydroxyphenyl)-5-(4-hydroxyphenyl)-1H-pyrrolo[2,3-b]pyridine] | 9.3 | – | – | –
15 | epigallocatechin-3-gallate [reference compound] | – | – | – | Values similar to those of the literature
